Data taken from patent publication US20240209022A1, “NOVEL PEPTIDE HAVING ANTI-INFLAMMATORY AND TISSUE REGENERATIVE ACTIONS” (KOREA RESEARCH INSTITUTE OF BIOSCIENCE AND BIOTECHNOLOGY, priority 2020, published 2024).

B1: Amuc_1409: SEQ ID NO: 15, functional fragment obtained by eliminating the leader sequence from SEQ ID NO: 14; protein derived from Akkermansia muciniphila (protein)
chain: IPESSVPAAAVSSIKGAYPNAGPIEWDSEMHGMERIYEAEFRINGFQFDVKIAPDGKIVRIKEEIAASSLPEAVRASVLKRYPGCRIKEAEKITEGELVRYKVEVADSRDDYDVLIAPDGNILHVDR
modifications: Amuc_1409_fragment
notes: protein derived from Akkermansia muciniphila

What was measured:
naturally aged mice = test: NORT and Y-maze alteration test in naturally aged mice; format: in vivo, C57BL6/J mice; details: oral; for spontaneous alteration, Y-maze alteration test: 0.2 μg daily 5 days a week for 8 weeks, vs PBS buffer
Protocol: An experiment was conducted to verify the efficacy of the peptides of the present invention in an animal model of cognitive/memory disorder due to natural aging.
Amuc_1409 was orally administered to 16.5-month-old male mice by 4.5 μg daily 5 days a week for 8 weeks, and PEP002, PEP003, PEP004, or PEP005 was dissolved in PBS buffer at a concentration of 2.4 μM and then orally administered to 16-month-old male mice by 150 μL per animal at the same time once a day for 3 weeks. To the control group (vehicle), PBS was orally administered in the same volume.
In the case of the groups administered with the novel tetrapeptides and tripeptides (PEP006 to PEP013), each peptide was orally administered to 19-month-old female C57BL6/J mice by 0.2 μg daily 5 days a week for 8 weeks. At this time, the peptide was dissolved in PBS buffer and orally administered to the mice at 0.2 μg/150 μL per animal at the same time once a day. To the vehicle group, PBS was orally administered in the same volume. At this time, 4-month-old female C57BL6/J mice were used as a young control group.
A novel object recognition test (NORT) was performed to test the effect of improving cognitive function in naturally aged mice. When the object seen 24 hours ago and a novel object were provided, the exploration time and the number of explorations for the novel object were measured to test cognition and memory. In addition, a Y-maze alteration test was performed to confirm the effect of enhancing spatial perception and memory. In the Y-maze alteration test, spontaneous alteration (%) was evaluated by measuring the order of entering each Y-shaped maze (A, B and C). […] The spontaneous alteration was calculated and expressed as the total number of alterations/(total number of entries−2)×100.

[1] = test system: APP/PS1 Alzheimer's disease mice; test: Novel object recognition test in APP/PS1 Alzheimer's disease mice; format: in vivo; details: oral for 8 weeks; vs vehicle
Protocol: To 5-month-old APP/PS1 Alzheimer's disease male mice with amyloid deposition and cognitive and memory disorder in the brain, Amuc_1409 was orally administered to the mice by 5 μg daily 5 days a week for 8 weeks. PEP001 was dissolved in PBS buffer at a concentration of 2.4 μM, and then orally administered to the mice by 150 μL per animal 5 days a week for 8 weeks. To the control group (vehicle), PBS was orally administered in the same volume. In addition, normal mice (Non-Tg) not administered with the novel protein fragments were used as a control group.
(§1) In order to test the effect of improving cognitive function in APP/PS1 Alzheimer's disease mice administered with Amuc_1409 and PEP001, a novel object recognition test was performed. When the object seen 24 hours ago and a novel object were provided, the exploration time and the number of explorations for the novel object were measured to test cognition and memory.

[2] = test system: DSS-induced enteritis model; test: DSS enteritis (inflammatory bowel disease) model; format: in vivo, C57BL/6J mice; details: vs PBS buffer group; for Il-6 gene expression in distal colon: RT-qPCR; for length of the colon: oral 3 days in recovery period; for body weight (weight gain rate): recovery period after DSS, oral 6 days
Protocol: In order to confirm the efficacy of the peptides of the present invention for preventing and treating inflammatory bowel disease, an experiment was conducted using an animal model of enteritis. As the enteritis model, enteritis was induced by dissolving DSS in drinking water at a concentration of 1.2% and then administered to 10-week-old specific pathogen free (SPF) male C57BL/6J mice through the drinking water for 6 days, and then the drinking water was replaced with water to give a recovery period. During the recovery period, PEP002, PEP003, PEP004, or PEP005 was dissolved in PBS buffer at a concentration of 4.3 μM and then orally administered to the mice by 150 μL per animal once a day at the same time, and the same volume of PBS buffer was orally administered to the control group. During the recovery period, oral administration was performed 6 times for 6 days to examine the rate of increase in body weight due to recovery from enteritis. In addition, in order to examine the length of the colon, the degree of inflammation in the colon, and the degree of recovery of the colon tissue, the test was terminated after oral administration 3 times for 3 days. At the end of the experiment, the length of the colon was measured, a part of the distal colon was rapidly cooled in liquid nitrogen, and RNA was extracted using Trizol. Reverse transcriptase was added to the obtained RNA and reacted to synthesize cDNA, and SYBR Green and primers were added to perform quantitative real-time PCR (RT-qPCR), and then the level of Il-6 gene expression was quantified. In addition, a part of the distal colon was fixed in 10% NBF at room temperature for 24 hours or more, and then embedded in paraffin to prepare a 5 μm-thick section, and the section was stained with hematoxylin and eosin (H&E). The H&E-stained tissue sections were observed under an optical microscope and the histopathological degree of enteritis was evaluated using a histologic colitis scoring system (Table 4). [table]

[3] = test system: LPS-induced cognitive and memory disorder mice; test: Novel object recognition test in LPS-induced cognitive/memory disorder model; format: in vivo, C57BL/6J mice; details: oral; LPS 250 μg/kg/day for 7 days; vs control group
Protocol: LPS was intraperitoneally injected to C57BL/6J male mice at 250 μg/kg/day daily for 7 days to induce cognitive and memory disorders. Amuc_1409, a protein derived from Akkermansia muciniphila, was orally administered to the mice by 5 μg daily from one week before LPS administration until the cognitive and memory test was performed. PEP002, PEP003, PEP004, or PEP005 was dissolved in PBS buffer at a concentration of 2.4 μM and then orally administered to the mice by 150 μL per animal daily at the same time once a day from 3 days before LPS administration until the cognitive and memory test was performed. To the control group (vehicle), PBS was orally administered in the same volume.
as §1, with “in” for “in APP/PS1 Alzheimer's disease”, “mice with cognitive and memory disorder” for “mice”, “or PEP002, PEP003, PEP004, or PEP005,” for “and PEP001,”

C2C12 myoblasts = test: Dexamethasone-induced atrophy gene expression in C2C12 myoblasts; format: cell-based; details: 64 nM peptide together with dexamethasone (25 μM); RT-qPCR
Protocol: Myoblast C2C12 (myoblast) was dispensed into a 6 well plate, and then cultured in a DMEM medium containing 10% FBS and 1% antibiotics at 37° C. in a 10% CO2 incubator. Thereafter, in order to induce differentiation, the medium was replaced with a differentiation medium containing 2% horse serum, the C2C12 cells were treated with PEP004 and PEP005 at a concentration of 64 nM during the time for induction of differentiation, and formation of myotubes was observed.
After differentiation of myoblasts, the cells were treated with dexamethasone (25 μM), which causes muscle atrophy, and PEP004 and PEP005 simultaneously, and then RNA was extracted from the cells using Trizol. Reverse transcriptase was added to the obtained RNA and reacted to synthesize cDNA, and SYBR Green and primers were added to perform quantitative real-time PCR (RT-qPCR). Expression levels of Atrogin-1 and MuRF1, which are factors involved in muscle atrophy, were measured to determine whether atrophy of differentiated myoblasts was inhibited.

| Molecule | spontaneous alteration, Y-maze alteration test (naturally aged mice) | cognition and memory, novel object recognition test [1] | Il-6 gene expression in distal colon [2] | length of the colon [2] | body weight (weight gain rate) [2] | degree of crypt damage (H&E) [2] | degree or extent of intestinal inflammation (H&E) [2] | memory and cognitive function, novel object recognition test [3] | expression of Atrogin-1 (C2C12 myoblasts) | expression of MuRF1 (C2C12 myoblasts) | cognition and memory, novel object recognition test (naturally aged mice; naturally aged mice, vs control group) |
| --- | --- | --- | --- | --- | --- | --- | --- | --- | --- | --- | --- |
| IGAY (PEP008) | significantly improved | – | – | – | – | – | – | – | – | – | – |
| VGAY (PEP010) | significantly improved | – | – | – | – | – | – | – | – | – | – |
| AVSSIKGAY (PEP001) | – | significantly improved | – | – | – | – | – | – | – | – | – |
| AVSSI (PEP002) | – | – | significantly decreased | significantly increased | tended to increase | significantly decrease | decreased | improved | – | – | – |
| KGAY (PEP003) | – | – | significantly decreased | tended to increase | tended to increase | significantly decrease | decreased | improved | – | – | – |
| AVS (AVSSIKGAY) [PEP004] | – | – | significantly decreased | significantly increased | significantly increased | significantly decrease | decreased | improved | significantly decreased | significantly decreased | – |
| GAY [PEP005] | – | – | significantly decreased | significantly increased | significantly increased | significantly decrease | decreased | improved | significantly decreased | significantly decreased | – |
| B1 | – | significantly improved | – | – | – | – | – | improved | – | – | significantly improved or tended to be improved |
